Measurements reported in ChEMBL document CHEMBL1201862, “PubChem BioAssay data set” (2004).
Active and inactive are the calls of the source.

What was measured:
[1] = alpha-synuclein stem-loop luciferase translation blockers – H4 neuroglioma cells, luminescence, confirmation (AID 1988); assay type: functional, cell-based
[2] = luciferase reporter signal suppression in cells – H4 neuroglioma cells, luminescence, dose response (AID 1990); assay type: functional, cell-based
[3] = Luminescence Cell-Based Dose Response HTS to Identify Inhibitors of 5'UTR Stem-Loop Driven Prion Protein mRNA Translation in H4 Neuroglioblastoma Cells. [Related pubchem assays: 1827 (Project Summary), 1813 (Primary HTS)]; assay type: functional
[4] = target: T1, Estrogen receptor (Homo sapiens, UniProt P03372);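 note: potency for inhibiting coactivator peptide recruitment to the receptor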
T1 sequence (P03372 whole entry): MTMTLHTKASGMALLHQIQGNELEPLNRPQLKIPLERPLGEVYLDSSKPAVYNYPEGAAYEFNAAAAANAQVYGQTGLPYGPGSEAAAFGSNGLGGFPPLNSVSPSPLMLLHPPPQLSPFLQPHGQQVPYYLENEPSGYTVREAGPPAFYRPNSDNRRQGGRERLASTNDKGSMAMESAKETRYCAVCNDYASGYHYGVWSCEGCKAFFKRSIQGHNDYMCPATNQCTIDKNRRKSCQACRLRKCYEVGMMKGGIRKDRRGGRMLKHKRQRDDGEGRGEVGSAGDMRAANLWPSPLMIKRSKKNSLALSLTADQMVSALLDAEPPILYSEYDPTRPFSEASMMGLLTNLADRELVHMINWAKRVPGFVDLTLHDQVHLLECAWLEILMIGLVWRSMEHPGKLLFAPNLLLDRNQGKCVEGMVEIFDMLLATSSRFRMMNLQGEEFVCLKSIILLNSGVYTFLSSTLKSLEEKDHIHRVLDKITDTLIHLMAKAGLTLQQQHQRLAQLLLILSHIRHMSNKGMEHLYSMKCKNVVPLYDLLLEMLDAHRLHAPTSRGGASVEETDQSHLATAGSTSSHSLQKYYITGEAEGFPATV

[5] = target: T2, Estrogen receptor beta (Homo sapiens, UniProt Q92731);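 note: recombinant ER-beta bound to coactivator SRC1 peptide in presence of estradiol agonist; inhibitors block coactivator peptide binding and lower the FRET signal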
T2 sequence (Q92731 whole entry): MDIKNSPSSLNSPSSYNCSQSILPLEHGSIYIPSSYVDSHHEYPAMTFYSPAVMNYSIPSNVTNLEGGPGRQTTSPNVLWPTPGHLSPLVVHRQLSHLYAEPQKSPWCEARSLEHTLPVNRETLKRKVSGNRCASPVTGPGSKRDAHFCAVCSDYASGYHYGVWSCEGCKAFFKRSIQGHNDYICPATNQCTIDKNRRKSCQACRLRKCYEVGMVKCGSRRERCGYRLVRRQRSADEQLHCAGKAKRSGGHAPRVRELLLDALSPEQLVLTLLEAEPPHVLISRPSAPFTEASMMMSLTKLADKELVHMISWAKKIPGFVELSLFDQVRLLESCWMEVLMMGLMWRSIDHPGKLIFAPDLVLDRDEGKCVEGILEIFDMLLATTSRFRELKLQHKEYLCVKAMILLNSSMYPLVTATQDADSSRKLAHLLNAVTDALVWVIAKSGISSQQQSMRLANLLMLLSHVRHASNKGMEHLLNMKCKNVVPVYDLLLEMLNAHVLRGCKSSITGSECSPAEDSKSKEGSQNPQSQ

[6] = target: T2, Estrogen receptor beta; assay: blockers of SRC-3 recruitment to ERβ – biochemical, ELISA, streptavidin-HRP readout, orthogonal assay, confirmation (AID 1060)
[7] = target: Voltage-dependent T-type calcium channel subunit alpha-1H (Homo sapiens, UniProt O95180); assay type: functional;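 note: channel activity triggered by adding a high calcium stimulation buffer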
Sequence of Voltage-dependent T-type calcium channel subunit alpha-1H (O95180 whole entry): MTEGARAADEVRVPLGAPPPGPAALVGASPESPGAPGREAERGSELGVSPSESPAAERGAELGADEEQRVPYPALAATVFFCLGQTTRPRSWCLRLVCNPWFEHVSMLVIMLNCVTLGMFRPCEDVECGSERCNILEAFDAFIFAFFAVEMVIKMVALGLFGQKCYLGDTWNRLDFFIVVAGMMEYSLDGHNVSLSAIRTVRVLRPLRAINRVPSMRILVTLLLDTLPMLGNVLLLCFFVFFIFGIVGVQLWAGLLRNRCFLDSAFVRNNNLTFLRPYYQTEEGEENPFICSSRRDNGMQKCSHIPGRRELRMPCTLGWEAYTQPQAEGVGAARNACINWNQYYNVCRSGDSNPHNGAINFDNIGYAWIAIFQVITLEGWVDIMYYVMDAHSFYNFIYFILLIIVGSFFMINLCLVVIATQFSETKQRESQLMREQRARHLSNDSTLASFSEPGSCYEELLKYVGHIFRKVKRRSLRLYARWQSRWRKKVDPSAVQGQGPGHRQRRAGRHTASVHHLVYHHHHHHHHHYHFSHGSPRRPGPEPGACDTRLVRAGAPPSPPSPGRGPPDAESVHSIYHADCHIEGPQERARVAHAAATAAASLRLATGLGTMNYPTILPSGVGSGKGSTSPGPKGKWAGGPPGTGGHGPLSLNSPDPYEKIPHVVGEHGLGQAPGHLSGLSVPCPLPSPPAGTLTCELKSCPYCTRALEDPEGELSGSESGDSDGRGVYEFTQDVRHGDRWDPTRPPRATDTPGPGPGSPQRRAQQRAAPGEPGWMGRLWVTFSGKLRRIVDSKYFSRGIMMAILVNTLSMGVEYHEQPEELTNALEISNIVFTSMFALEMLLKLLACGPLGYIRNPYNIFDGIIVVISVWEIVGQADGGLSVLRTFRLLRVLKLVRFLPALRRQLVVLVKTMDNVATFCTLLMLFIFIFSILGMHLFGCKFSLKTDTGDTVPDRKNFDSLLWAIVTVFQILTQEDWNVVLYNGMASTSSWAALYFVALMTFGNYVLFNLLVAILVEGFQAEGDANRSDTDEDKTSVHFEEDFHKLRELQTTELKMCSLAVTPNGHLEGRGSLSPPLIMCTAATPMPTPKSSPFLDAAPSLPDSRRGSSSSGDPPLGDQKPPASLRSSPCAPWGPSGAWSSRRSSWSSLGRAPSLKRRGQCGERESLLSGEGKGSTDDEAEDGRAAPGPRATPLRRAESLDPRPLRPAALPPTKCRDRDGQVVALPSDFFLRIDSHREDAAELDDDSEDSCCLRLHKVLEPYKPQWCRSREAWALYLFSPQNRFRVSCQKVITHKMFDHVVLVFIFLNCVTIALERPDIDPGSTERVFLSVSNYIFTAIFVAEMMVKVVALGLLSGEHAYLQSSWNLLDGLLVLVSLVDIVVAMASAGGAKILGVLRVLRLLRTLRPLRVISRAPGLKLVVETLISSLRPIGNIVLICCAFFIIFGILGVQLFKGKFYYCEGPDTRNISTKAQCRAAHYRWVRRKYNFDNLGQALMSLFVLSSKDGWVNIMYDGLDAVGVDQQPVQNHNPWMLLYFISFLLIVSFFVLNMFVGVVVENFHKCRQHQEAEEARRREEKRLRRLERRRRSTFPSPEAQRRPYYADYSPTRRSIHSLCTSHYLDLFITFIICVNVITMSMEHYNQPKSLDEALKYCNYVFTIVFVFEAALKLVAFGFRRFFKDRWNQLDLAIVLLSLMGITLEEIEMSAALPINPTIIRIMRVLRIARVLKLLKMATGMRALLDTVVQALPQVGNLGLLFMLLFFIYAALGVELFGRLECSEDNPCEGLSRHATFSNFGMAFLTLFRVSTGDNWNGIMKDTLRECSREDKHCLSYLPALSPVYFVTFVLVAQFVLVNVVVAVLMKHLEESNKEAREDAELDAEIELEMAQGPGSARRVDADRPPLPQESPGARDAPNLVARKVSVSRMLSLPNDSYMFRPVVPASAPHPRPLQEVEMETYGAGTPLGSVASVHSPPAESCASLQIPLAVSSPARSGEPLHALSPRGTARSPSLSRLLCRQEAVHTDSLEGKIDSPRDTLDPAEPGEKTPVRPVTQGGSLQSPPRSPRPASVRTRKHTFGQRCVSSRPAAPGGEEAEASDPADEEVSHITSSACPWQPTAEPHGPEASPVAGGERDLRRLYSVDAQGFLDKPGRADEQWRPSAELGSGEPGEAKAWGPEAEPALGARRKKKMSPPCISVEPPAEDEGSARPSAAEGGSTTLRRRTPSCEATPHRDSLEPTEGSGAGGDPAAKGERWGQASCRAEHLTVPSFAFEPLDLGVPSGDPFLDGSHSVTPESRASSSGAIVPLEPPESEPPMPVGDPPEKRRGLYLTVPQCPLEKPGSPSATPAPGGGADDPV

[8] = target: Peroxisome proliferator-activated receptor gamma/Nuclear receptor coactivator 2 (Homo sapiens, UniProt P37231); assay: (§1) TR-FRET dose response biochemical High Throughput Screening assay for agonists of the steroid receptor coactivator 2 (SRC-2) recruitment by the peroxisome proliferator-activated receptor gamma (PPAR gamma): non-selective agonists. [Related pubchem assays: 1297, 1032 ]; assay type: functional
[9] = target: Peroxisome proliferator-activated receptor gamma/Nuclear receptor coactivator 1 (Homo sapiens, UniProt P37231); assay: as §1, with “1 (SRC-1)” for “2 (SRC-2)”, “assays (depositor defined):AID1300, AID1808, AID504735, AID631]” for “assays: 1297, 1032 ]”; assay type: protein assay
[10] = target: Peroxisome proliferator-activated receptor gamma/Nuclear receptor coactivator 3 (Homo sapiens, UniProt P37231); assay: as §1, with “3 (SRC-3)” for “2 (SRC-2)”, “1301 (Confirmation screen.), 1048 (Primary screen.)]” for “1297, 1032 ]”; assay type: functional
[11] = target: T3, E3 ubiquitin-protein ligase XIAP (Homo sapiens, UniProt P98170); assay: Counter Screen using XIAP-Bir3 for Chemical Antagonists of Bir1/2 domains of IAP-family anti-apoptotic proteins. [Related pubchem assays (depositor defined):AID1018, AID1449, AID1514, AID1638, AID1749, AID1750, AID488957, AID488963]
T3 sequence (P98170 whole entry): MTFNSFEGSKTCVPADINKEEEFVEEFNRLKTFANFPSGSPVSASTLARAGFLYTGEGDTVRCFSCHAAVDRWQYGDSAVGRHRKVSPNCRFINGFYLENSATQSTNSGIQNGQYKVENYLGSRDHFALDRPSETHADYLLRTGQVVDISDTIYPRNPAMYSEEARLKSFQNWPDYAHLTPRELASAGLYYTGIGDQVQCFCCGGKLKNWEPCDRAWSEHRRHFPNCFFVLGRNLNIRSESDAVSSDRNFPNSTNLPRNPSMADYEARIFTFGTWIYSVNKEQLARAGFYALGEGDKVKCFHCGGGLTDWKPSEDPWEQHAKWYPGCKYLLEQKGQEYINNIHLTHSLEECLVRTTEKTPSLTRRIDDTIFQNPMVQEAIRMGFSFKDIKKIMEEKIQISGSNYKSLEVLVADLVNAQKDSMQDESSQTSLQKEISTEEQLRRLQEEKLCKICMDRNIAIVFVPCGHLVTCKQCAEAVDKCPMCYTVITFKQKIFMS

[12] = target: T3, E3 ubiquitin-protein ligase XIAP; assay: small molecules displacing peptide from XIAP – biochemical, IAP family, fluorescence polarization (AID 1018); assay type: functional
[13] = Vero E6 cell cytotoxicity, dose response, cytotoxicity control for non-replicating M. tuberculosis project, secondary assay (AID 492998); assay type: functional, VeroE6; conditions: Vero C1008
[14] = THP-1 cell cytotoxicity, dose response, cytotoxicity control for non-replicating M. tuberculosis project (AID 489025); assay type: functional
[15] = HepG2 cell cytotoxicity, dose response, cytotoxicity control for non-replicating M. tuberculosis project (AID 489018); assay type: functional; conditions: Mycobacterium tuberculosis
[16] = tested on: Streptococcus sp. 'group A'; assay: Streptococcus pyogenes SK(-)GAS viability under kanamycin – luminescence, BacTiterGlo, confirmation, counter-screen for streptokinase expression inhibitor project, dose response (AID 1900); assay type: functional, organism-based
[17] = tested on: Streptococcus; assay: GAS UMAA2166 growth inhibition – luminescence, BacTiterGlo, counter-screen for streptokinase expression inhibitor project, dose response (AID 1915); assay type: functional, organism-based;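 note: potency for reduction of bacterial viability or growth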
[18] = cells; assay type: functional
[19] = target: T4, Bcl-2-like protein 10 (Homo sapiens, UniProt Q9HD36); assay: Bcl-B/TR3 peptide binding disruption – biochemical, fluorescence polarization, FITC-TR3 peptide, selectivity assay for Bfl-1 inhibitor project, primary screen (AID 748);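 note: fluorescence polarization from a fluorescein-labelled TR3 peptide binding purified Bcl-B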
T4 sequence (Q9HD36 whole entry): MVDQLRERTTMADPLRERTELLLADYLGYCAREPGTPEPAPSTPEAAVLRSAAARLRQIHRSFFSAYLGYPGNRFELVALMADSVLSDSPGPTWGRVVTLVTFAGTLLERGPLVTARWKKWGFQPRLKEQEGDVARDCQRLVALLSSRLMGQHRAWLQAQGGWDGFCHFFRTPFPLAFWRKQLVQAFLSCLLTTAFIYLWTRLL

[20] = target: T5, CAAX prenyl protease 2 (Homo sapiens, UniProt Q9Y256); assay: inhibition of Ras-converting CAAX protease Rce1 – biochemical, yeast membranes, quenched-peptide fluorescence, cherry-pick, dose response (AID 588849)
T5 sequence (Q9Y256 whole entry): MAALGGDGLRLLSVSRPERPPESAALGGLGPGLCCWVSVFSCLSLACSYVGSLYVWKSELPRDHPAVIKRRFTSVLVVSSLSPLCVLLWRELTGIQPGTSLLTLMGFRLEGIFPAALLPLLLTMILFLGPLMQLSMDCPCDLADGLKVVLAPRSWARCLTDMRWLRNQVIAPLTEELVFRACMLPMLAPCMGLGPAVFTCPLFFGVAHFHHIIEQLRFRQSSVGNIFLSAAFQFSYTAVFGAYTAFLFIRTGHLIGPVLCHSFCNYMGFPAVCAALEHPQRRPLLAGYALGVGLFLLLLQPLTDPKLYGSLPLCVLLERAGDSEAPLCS

[21] = target: Trypsin (Sus scrofa, UniProt P00761); assay: trypsin protease activity blockade – biochemical, quenched peptide fluorescence, cherry-pick, selectivity assay for Rce1 protease inhibitor project, dose response (AID 488789)
Sequence of Trypsin (P00761 whole entry): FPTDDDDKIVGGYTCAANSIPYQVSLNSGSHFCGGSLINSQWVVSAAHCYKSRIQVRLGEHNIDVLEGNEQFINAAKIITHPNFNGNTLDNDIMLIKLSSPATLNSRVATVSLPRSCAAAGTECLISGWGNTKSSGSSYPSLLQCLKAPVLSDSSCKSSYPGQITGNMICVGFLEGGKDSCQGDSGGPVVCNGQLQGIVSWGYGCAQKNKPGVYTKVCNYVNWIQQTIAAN

[22] = target: Troponin, cardiac muscle (Homo sapiens, UniProt P19429+P45379+P63316); assay: Fluorescence-based biochemical high throughput dose response assay for activators of the calcium sensitivity of cardiac Regulated Thin Filaments (RTF). [Related pubchem assays (depositor defined):AID493008, AID493018, AID504382, AID504383]; assay type: protein-complex assay

In the case of COc1ccc(Cn2c(=O)[nH]c3cc(C(=O)NCc4ccc5c(c4)OCO5)ccc3c2=O)cc1, the EC50 [1] was 11 µM (active), the EC50 [2] was > 120 µM (not active) and the EC50 [3] was > 120 µM (not active). For the same compound, the IC50 [4] was 18.9 µM (active).

For CSC1=N/C(=C\c2ccc(Br)o2)C(=O)S1, the IC50 [5] was 8.58 µM (active), the IC50 [6] was < 0.023 µM (not active) and the IC50 [4] was 22.1 µM (active).

For Cc1ccc(-c2noc(CSc3nnc(Cc4cccs4)n3-c3ccccc3)n2)cc1, the EC50 [7] was 3.56 µM (active).

With CCn1c(=O)cc(SCC(=O)N2CCN(c3ccccc3F)CC2)c2ccccc21 the EC50 [8] was > 79.4 µM (not active), the EC50 [9] was > 79.4 µM (inactive) and the EC50 [10] was > 79.4 µM (not active).

With Cc1cc(=O)oc2cc(OCc3ccc(C(=O)N4CCN(c5ccc([N+](=O)[O-])cc5)CC4)cc3)ccc12 the IC50 [11] was > 100 µM (inactive) and the IC50 [12] was > 100 µM (not active).

With CCOc1ccc(-c2nnc(NC(=O)c3ccc(OCC(C)C)c(OC)c3)o2)cc1 the CC50 [13] was 10.1 µM (active), the EC50 [7] was 11.3 µM (active) and the CC50 [14] was 13.8 µM (active). The CC50 [15] was > 20 µM (active), the EC50 [16] was 0.354 µM (active) and the EC50 [17] was 1.76 µM (active). For the same compound, the IC50 [18] was 36.7 µM (active).

For COC(=O)c1sc(-c2ccccc2)cc1NC(=O)C1CC1, the EC50 [8] was > 79.4 µM (not active), the EC50 [9] was > 79.4 µM (inactive) and the EC50 [10] was > 79.4 µM (not active).

For Cc1ccc(S(=O)(=O)NC(=O)c2cc(C)n(CCCn3ccnc3)c2C)cc1, the IC50 [19] was 74 µM (inactive).

With CC1CCN(c2oc(-c3ccc(F)cc3)nc2C#N)CC1 the AC50 [20] was 9.46 µM (active) and the AC50 [21] was 3.18 µM (active).

With CC(C)CN(C(=O)COC(=O)c1cc2c(s1)CCC2)C1CCS(=O)(=O)C1 (centres undefined) the IC50 [5] was 1.91 µM (active), the IC50 [19] was 26.6 µM (active) and the IC50 [6] was 1.94 µM (not active). For the same compound, the IC50 [4] was 2.95 µM (active).

For Cc1ccc(NC(=O)CN2C(=O)S/C(=C\C(=O)Nc3ccc(Cl)cc3)C2=O)cc1, the IC50 [11] was > 100 µM (inactive) and the IC50 [12] was > 100 µM (not active).

For CCCN(CCC)S(=O)(=O)c1ccc(NS(=O)(=O)c2ccc(F)cc2)cc1, the EC50 [7] was 3.07 µM (active).

For CCN(CC(=O)Nc1ccccc1C(F)(F)F)C(=O)c1ccc(-n2nc(C)c(CCC(=O)OC)c2C)cc1, the EC50 [22] was > 71.5 µM (inactive).
